These results are taken from patent US10336716B2, “Thermodynamically stable crystal modification of 2-methyl-N-(5-methyl-1, 3, 4-oxadiazol-2-yl)-3-(methylsulfonyl)-4-(trifluoromethyl)benzamide” (Bayer CropScience Aktiengesellschaft, priority 2015, dated 2019).

What all share (type): physicochemical
Series [1] can be described thus: wettability on mixing with water (first comparative experiment). An excerpt: Moreover, the benzamide obtainable according to the disclosure of WO 2012/126932 A1 has the disadvantage that it can be less readily worked up, filtered, purified and wetted with solvents. […] These disadvantages are overcome by the provision of the thermodynamically stable benzamide according to the invention.

The nature of series [2]: testing in practice of suspension formulations. Particulars: suspension formulation, benzamide finely ground in solid form. The source says: The benzamide known for example from WO 2012/126932 A1 (example No. 2-145 in table 2 therein) has herbicidal properties and is suitable for the production of crop protection compositions which can be employed for weed control. However, it has been shown that the benzamide obtainable according to the disclosure of WO 2012/126932 A1 is not suitable for the preparation of user-friendly administration forms. User-friendly administration forms are, for example, suspension formulations in which the benzamide is present finely ground in solid form. […] The crystal growth can occur spontaneously or over a longer period and cannot be predicted.

Series [3] can be described thus: stability test: storage of oil dispersion. Particulars: after several weeks of storage.

On to `Cc1nnc(NC(=O)c2ccc(C(F)(F)F)c(S(C)(=O)=O)c2C)o1` [2-methyl-N-(5-methyl-1,3,4-oxadiazol-2-yl)-3-(methylsulfonyl)-4-(trifluoromethyl)benzamide], for which the “wettability with solvents (in words)” value in series [1] (solvents such as water and aqueous solvents) was “poorer wettability”. Moreover, the “crystal growth in suspension formulations” value in series [2] was “leads to crystal growth in suspension formulations and consequently to clumping and precipitation”.

For the molecule `Cc1nnc(NC(=O)c2ccc(C(F)(F)F)c(S(C)(=O)=O)c2C)o1` [crystal modification A, 2-methyl-N-(5-methyl-1,3,4-oxadiazol-2-yl)-3-(methylsulfonyl)-4-(trifluoromethyl)benzamide], the wettability in series [1] (after 1 minute on mixing with water) turned out to be 100%. Moreover, the “clumping and precipitation of oil dispersion on storage” value in series [3] is “no signs of clumping and precipitation”.
